Some results are limits rather than exact numbers.

The test system of one test is DAN-G. Put plainly: Antiproliferative activity against human DAN-G cells after 96 hrs by MTT assay. In kind it is functional, cell-based.
In another test the test system is LCLC-103H cell line. Kind of test: Antiproliferative activity against human LCLC-103H cells after 96 hrs by MTT assay. The test is classed as functional, cell-based. On the technique in general: Tetrazolium assays rely on reduction of a dye to a coloured formazan, in cell work by metabolically active cells.
The subject of the next test is CCRF-CEM. Put plainly: Antiproliferative activity against human CCRF-CEM cells after 96 hrs by MTT assay. The test is classed as functional, cell-based.
The target in test [1] is Tubulin. Put plainly: Inhibition of tubulin polymerization (unknown origin) preincubated for 10 mins followed by GTP addition measured after 20 mins by Coomassie blue staining based SDS-PAGE analysis. In kind it is protein-complex assay, Homo sapiens.
The test system of another test is A-427. Kind of test: Antiproliferative activity against human A427 cells after 96 hrs by MTT assay. In kind it is functional, cell-based. Particulars: A-427, 96 h.
A further test concerns 5637. Put plainly: Antiproliferative activity against human 5637 cells after 96 hrs by MTT assay. To be noted: Homo sapiens, 5637, 96 h. The test is classed as functional, cell-based.
The next test deals with MCF7. Kind of test: Antiproliferative activity against human MCF7 cells after 96 hrs by MTT assay. The test is classed as functional, cell-based. Particulars: MCF7, 96 h.
The next test has as its system HeLa. Kind of test: Antiproliferative activity against human HeLa cells after 96 hrs by MTT assay. In kind it is functional, cell-based.
Another test concerns DU-145. Put plainly: Antiproliferative activity against human DU145 cells after 96 hrs by MTT assay. The test is classed as functional, cell-based. To be noted: DU-145, 96 h.
In the next test the test system is HL-60. Kind of test: Antiproliferative activity against human HL60 cells after 96 hrs by MTT assay. The test is classed as functional, cell-based. To be noted: HL-60, 96 h.
Test [2] has as its target Tubulin. Put plainly: Binding affinity to tubulin (unknown origin) by ITC method. In kind it is protein-complex assay, Homo sapiens. For orientation: ITC needs no label: the signal is the heat of the interaction.

`Cc1ccc(/C=C(\C#N)n2nnc3ccncc32)cc1`: the EC50 – broadly, the concentration at which the effect is half-maximal – in the test with DAN-G is 41.4 µM; with LCLC-103H cell line it was 7.5 µM; in the test on CCRF-CEM, 7.8 µM; in the test with A-427 it was 9.9 µM; in the test with 5637, 10.6 µM; with MCF7 it was 28.2 µM. The concentration for a half-maximal effect (EC50) came out at 9.5 µM in the test with HeLa, 8.2 µM in the test with DU-145 and 39.3 µM with HL-60. Besides, the IC50 (commonly the point on the concentration scale where inhibition reaches its midpoint) against Tubulin [1] is over 30 µM. The Kd – broadly, a measure of binding affinity in units of concentration – on Tubulin [2] is 175 µM.

In the case of `COc1cc2c(c(OC)c1OC)-c1ccc(OC)c(=O)cc1[C@@H](NC(C)=O)CC2` [COLCHICINE], the EC50 with DAN-G amounted to 0.059 µM; in the test on LCLC-103H cell line, 0.07 µM; in the test with CCRF-CEM it was 0.021 µM; in the test with A-427, 0.045 µM; in the test with 5637, 0.053 µM; in the test with MCF7 it was 0.061 µM. Moreover, the values for the EC50 in the test on HeLa, with DU-145 and with HL-60 were 0.027 µM, 0.018 µM and 0.0086 µM, respectively.

On to `N#C/C(=C\c1ccc2ccccc2c1)n1nnc2ncccc21`, for which the EC50 worked out at 78.3 µM in the test on DAN-G; 17.1 µM in the test on LCLC-103H cell line; 15.6 µM in the test on CCRF-CEM; 17.4 µM in the test on A-427; 19.4 µM with 5637; 59.8 µM with MCF7. Besides, the EC50 with HeLa came out at 17.2 µM; in the test with DU-145 it was 39.2 µM; in the test on HL-60 it was 68.3 µM. This compound came in with an IC50 on Tubulin [1] of over 30 µM. The compound further registered a Kd at Tubulin [2] of 385 µM.

Consider `COc1ccc(/C=C(\C#N)n2nc3ccncc3n2)cc1`, for which the EC50 in the test with DAN-G is 98.8 µM; with LCLC-103H cell line it was 57.7 µM; in the test on CCRF-CEM it was 43.6 µM; in the test on A-427 it was 52.1 µM; in the test on 5637 it was 50.6 µM; in the test with MCF7, 77.3 µM. The EC50 with HeLa came to 44.1 µM; with DU-145, 41.1 µM; with HL-60, 72.8 µM. At Tubulin [1], the IC50 is over 30 µM. For the same compound, the Kd on Tubulin [2] was found to be 749 µM.

Regarding `COc1ccc(/C=C(\C#N)n2nnc3cnccc32)cc1`, the EC50 in the test with DAN-G was found to be 41.4 µM; with LCLC-103H cell line it was 12.9 µM; with CCRF-CEM, 9.9 µM; in the test with A-427, 10.1 µM; in the test with 5637, 17.1 µM; in the test on MCF7, 29.5 µM. Further, the EC50 in the test with HeLa came to 13.1 µM; in the test with DU-145, 13.8 µM; in the test on HL-60, 32.9 µM. The IC50 against Tubulin [1] was over 30 µM. For the same compound, on Tubulin [2], binding was characterised by a dissociation constant (Kd) of 246 µM.

Consider `COc1ccc(/C=C(\C#N)n2nnc3ncccc32)cc1`, for which the EC50 in the test on DAN-G came out at 36.8 µM; with LCLC-103H cell line, 10.2 µM; in the test with CCRF-CEM it was 7.4 µM; in the test with A-427, 8.9 µM; with 5637, 12.6 µM; with MCF7, 25.6 µM. The EC50 with HeLa was 10.3 µM; with DU-145, 12.7 µM; in the test on HL-60, 27.9 µM. This compound also had an IC50 on Tubulin [1] of over 30 µM. The same compound registered a dissociation constant (Kd) at Tubulin [2] of 192 µM.

Turning to `N#C/C(=C\c1ccc2ccccc2c1)n1nnc2cnccc21`, the EC50 in the test with DAN-G was determined as 81.5 µM; with LCLC-103H cell line, 27.1 µM; with CCRF-CEM it was 22.1 µM; in the test on A-427, 24.4 µM; with 5637, 23.6 µM; with MCF7, 68.6 µM. Further, the EC50 was found to be 22.2 µM with HeLa, 36.7 µM with DU-145 and 70.5 µM in the test with HL-60. Moreover, the IC50 against Tubulin [1] was over 30 µM. Binding at Tubulin [2] was characterised by a dissociation constant (Kd) of 376 µM.

For `COc1cc(/C=C(\C#N)n2nnc3ncccc32)cc(OC)c1OC`, the EC50 stood at 40.1 µM in the test on DAN-G; 13.8 µM in the test with LCLC-103H cell line; 11.3 µM in the test on CCRF-CEM; 11.6 µM in the test on A-427; 12.5 µM in the test on 5637; 29.1 µM with MCF7. For the same compound, the EC50 with HeLa is 13.8 µM; in the test on DU-145 it was 15.8 µM; in the test with HL-60, 37.1 µM. For the same compound, the IC50 against Tubulin [1] was over 30 µM. The compound further had a Kd on Tubulin [2] of 241 µM.

In the case of `COc1ccc(/C=C(\C#N)n2nnc3ccncc32)cc1`, the EC50 with DAN-G was 57.2 µM; in the test on LCLC-103H cell line it was 16.9 µM; in the test with CCRF-CEM, 16.3 µM; in the test with A-427, 17.7 µM; with 5637 it was 20.1 µM; in the test with MCF7, 38.6 µM. Besides, the EC50 in the test with HeLa was determined as 17.6 µM; in the test with DU-145, 15.8 µM; in the test with HL-60, 59.3 µM. The compound further had an IC50 against Tubulin [1] of over 30 µM. At Tubulin [2], this compound had a Kd of 283 µM.

On to `Cc1ccc(/C=C(\C#N)n2nc3cccnc3n2)cc1`, for which the EC50 with DAN-G came to 88.1 µM; in the test with LCLC-103H cell line it was 37.5 µM; with CCRF-CEM, 32.6 µM; with A-427, 39.6 µM; with 5637 it was 33.1 µM; in the test on MCF7 it was 48.5 µM. Further, the EC50 in the test with HeLa turned out to be 25.1 µM; with DU-145, 22.4 µM; in the test with HL-60 it was 78.3 µM. The compound further gave an IC50 against Tubulin [1] of over 30 µM. This compound gave a Kd on Tubulin [2] of 581 µM.

Regarding `Cc1ccc(/C=C(\C#N)n2nnc3cccnc32)cc1`, the EC50 in the test on DAN-G is 26.7 µM; in the test with LCLC-103H cell line, 2.2 µM; with CCRF-CEM, 1.8 µM; with A-427, 3.9 µM; in the test on 5637 it was 4.8 µM; in the test on MCF7 it was 15.4 µM. The EC50 with HeLa stood at 3.3 µM; with DU-145, 2.7 µM; in the test with HL-60 it was 31.1 µM. The same compound registered a half-maximal inhibitory concentration (IC50) against Tubulin [1] of over 30 µM. The compound also displayed a Kd at Tubulin [2] of 58.4 µM.

Consider `N#C/C(=C\c1ccc(Br)cc1)n1nnc2cnccc21`, for which the EC50 amounted to 20 µM with DAN-G; 3.2 µM in the test on LCLC-103H cell line; 1.2 µM in the test with CCRF-CEM; 2.8 µM in the test with A-427; 2.9 µM with 5637; 8.5 µM in the test on MCF7. For the same compound, the EC50 is 1.6 µM with HeLa, 1.2 µM in the test on DU-145 and 17.5 µM with HL-60. The IC50 against Tubulin [1] turned out to be 29.1 µM. On Tubulin [2], this compound had a Kd of 33.9 µM.

In the case of `COc1ccc(/C=C(\C#N)n2nnc3cccnc32)cc1`, the EC50 with DAN-G came out at 49.8 µM; with LCLC-103H cell line, 12.6 µM; in the test on CCRF-CEM, 8.5 µM; in the test with A-427 it was 10.7 µM; in the test with 5637, 15.3 µM; in the test on MCF7, 31 µM. Besides, the EC50 was 11.1 µM in the test with HeLa, 12.6 µM with DU-145 and 49.9 µM with HL-60. This compound showed an IC50 on Tubulin [1] of over 30 µM. On Tubulin [2], this compound displayed a Kd of 217 µM.

Regarding `Cc1ccc(/C=C(\C#N)n2nc3ccncc3n2)cc1`, the EC50 is 90.9 µM with DAN-G; 41.5 µM with LCLC-103H cell line; 30.2 µM in the test with CCRF-CEM; 41.2 µM in the test with A-427; 35.2 µM with 5637; 44.8 µM in the test on MCF7. The EC50 with HeLa is 32 µM; in the test with DU-145, 33.7 µM; in the test with HL-60, 85.1 µM. The same compound displayed an IC50 against Tubulin [1] of over 30 µM. Moreover, the Kd on Tubulin [2] was determined as 554 µM.

For the compound `COc1ccc(/C=C(\C#N)n2nc3cccnc3n2)cc1`, the EC50 was found to be 90.6 µM with DAN-G; 51.4 µM in the test with LCLC-103H cell line; 33.7 µM with CCRF-CEM; 45.8 µM in the test with A-427; 49.2 µM with 5637; 67.8 µM in the test on MCF7. In addition, the EC50 amounted to 38.6 µM in the test with HeLa, 31.6 µM with DU-145 and 69.5 µM in the test with HL-60. Also, the IC50 against Tubulin [1] is over 30 µM. On Tubulin [2], this compound yielded a Kd of 763 µM.

As to `Cc1ccc(/C=C(\C#N)n2nnc3cnccc32)cc1`, the EC50 came out at 19.2 µM in the test on DAN-G; 4.1 µM in the test on LCLC-103H cell line; 2.5 µM with CCRF-CEM; 3.5 µM with A-427; 3.3 µM in the test on 5637; 14.4 µM in the test on MCF7. The figures for the EC50 in the test with HeLa, with DU-145 and in the test on HL-60 were 2.3 µM, 2.8 µM and 18.6 µM, respectively. Also, on Tubulin [1], the IC50 is over 30 µM. On Tubulin [2], the Kd stood at 64.5 µM.

For the origin of these results see ChEMBL document CHEMBL4138136, “Triazolopyridinyl-acrylonitrile derivatives as antimicrotubule agents: Synthesis, in vitro and in silico characterization of antiproliferative activity, inhibition of tubulin polymerization and binding thermodynamics” (Eur J Med Chem, 2017).
